Measurements from paper PMC7895427, “A stapled peptide mimetic of the CtIP tetramerization motif interferes with double-strand break repair and replication fork protection” (Science Advances, 2021).
Positions of bridges follow the written chain, without caps; N, C: chain ends. Non-standard residues stand in square brackets, D forms with d. Residues, ends and D or L forms follow the SMILES beside them. R8 = C=CCCCCCC[C@@](C)(N)C(=O)O; S5 = C=CCCC[C@](C)(N)C(=O)O

What was measured:
HeLa cells = assay: Clonogenic survival assay; type: cell-based; conditions: 10 μM, fig. S7A
Experimental: (§1) Two hundred cells per well were seeded into poly-L-lysine (Sigma-Aldrich)–coated 24-well plates and the next day treated with respective drugs (CPT, Sigma-Aldrich; olaparib, Selleck Chemicals) and peptides (total volume: 300 μl per well). For details, see figure legends. After 10 days of growth, cells were fixed with crystal violet solution [0.5% crystal violet and 20% ethanol (w/v)]. Plates were scanned, and survival was analyzed with the ImageJ plugin Colony Area using the parameter colony intensity as readout ([47]).

MCF7 = assay: Clonogenic survival assay; type: cell-based; conditions: 10 μM peptide 24 hours, 10 days growth; BRCA1 wt breast cancer cell line
Experimental: as §1

MCF10A = assay: Clonogenic survival assay; type: cell-based; conditions: 10 μM peptide 24 hours, 10 days growth; BRCA1 wt nontumorigenic cell line
Experimental: as §1

RPE1 = assay: Clonogenic survival assay; type: cell-based; conditions: 10 μM peptide 24 hours, 10 days growth; BRCA1 wt nontumorigenic cell line
Experimental: as §1

[1] = CD spectroscopy and CD thermal denaturation; type: physicochemical; conditions: 210 nm, 25° until 90°C, ddH2O
Experimental: CD spectroscopy data were collected on a Jasco J-710 spectropolarimeter. A total of 0.2 or 0.05 mg/ml of LP^18–28 or SP^18–28 in ddH2O was measured with a 1-mm path length cuvette. CD spectra were recorded at 0.5-nm intervals between 190 and 260 nm at 25°C. CD thermal denaturation data were recorded at 210 nm at 0.2°C intervals starting at 25° until 90°C.

U2OS cells = assay: EdU incorporation, cell cycle distribution and cell proliferation; type: cell-based; conditions: fig. S5, E and F; proliferation at 5 μM
Experimental: HeLa cells were seeded into six-well plates and incubated with peptides in a volume of 2 ml for varying time points. Cells were harvested by trypsinization, washed, and resuspended in PBS before subjecting them to flow cytometry analysis. FITC intensity was measured with an Attune Nxt flow cytometer equipped with a 488-nm laser and 530/30 band-pass filter. Analysis of 5-Ethynyl-2′-deoxyuridine (EdU) incorporation was carried out using the Click-iT EdU technology (Thermo Fisher Scientific) as described in the manufacturer’s instructions. A minimum of 20,000 events were recorded.
A total of 125 and 250 U2OS cells were seeded in triplicates in 96-well plates in a volume of 90 μl. Twenty-four hours after seeding, 10 μl of medium only or medium with the indicated peptides was added to the wells reaching a final peptide concentration of 5 μM. Cell proliferation was monitored using a CellTiter-Blue–based (Promega) approach at specific time points (0, 2, 5, and 7 days after peptide treatment). In brief, 20-μl CellTiter-Blue reagent (Promega) was added to the wells, incubated for 4 hours, and fluorescence intensity was measured at 560/590 nm using a SpectraMax M5 microplate reader (Molecular Devices).

full-length CtIP-wt = molecular target: T1, full-length CtIP-wt (Homo sapiens, UniProt Q99708); assay: Blue native PAGE of full-length CtIP incubated with peptides; type: biochemical; conditions: 1- to 32-fold molar excess SP^18–28, 32-fold LP^18–28, 30 min RT
T1 construct: Full-length CtIP was purified according to ([14]); 3xFLAG; made in house
Experimental: Reactions were assembled in a volume of 10 μl with a 1.5 μM final concentration of CtIP and either 0, 1.5, 3, 6, 12, 24, or 48 μM LP/SP^18–28 in buffer A [10 mM tris (pH 8.0), 25 mM NaCl, 5% glycerol, and 0.5 mM dithiothreitol (DTT)] and 1× Blue Native Loading buffer [50 mM bis-tris (pH 7.2), 6 N HCl, 50 mM NaCl, 10% (w/v) glycerol, and 0.001% Ponceau S]. After incubation for 30 min at RT, samples were loaded onto a NativePAGE Novex 3 to 12% bis-tris gel (Invitrogen) and run at 150 V for 75 min. Gels were fixed in 40% methanol (MeOH) and 10% acetic acid and destained with 8% acetic acid.

U2OS EGFP-HR = assay: HR reporter assay; type: cell-based; conditions: 10 μM peptide, 24 hours; GFP-positive cells by flow cytometry; n = 4
Experimental: HR reporter assay was performed as described previously ([45], [46]). Briefly, U2OS EGFP-HR were seeded into a 12-well plate and the day after transfected with pCBA I-SceI expression plasmid using jetPRIME transfection reagent (Polyplus). Four hours later, medium was exchanged, and cells were incubated with peptides for 24 hours in 1-ml total volume. Twenty-four hours later, medium was replaced, and cells were harvested 48 hours after I-SceI transfection. A-EJ reporter assay was performed according to ([10]) with some minor modifications. Specifically, U2OS EGFP-aEJ were seeded into six-well plates and siRNA transfected. Six hours later, cells were transfected with I-SceI expression plasmid (pCBA) using Fugene 6 (Promega). Medium was exchanged 24 hours after and replaced with 2-ml fresh medium and the peptides (10 μM). Twenty-four hours later, medium was again replaced with fresh medium without peptides, and 72 hours after I-SceI transfection, cells were harvested. GFP expression (readout for HR and a-EJ frequency) was measured by flow cytometry using the Attune Nxt flow cytometer equipped with a 488-nm laser and 530/30 band-pass filter. A minimum of 20,000 events were recorded.

U2OS^GFP-CtIP-wt = assay: Laser microirradiation, GFP-CtIP recruitment to γH2AX-decorated laser stripes; type: cell-based; conditions: 10 μM peptide, 24 hours, fixed 30 min after microirradiation; n = 4
Experimental: Laser microirradiation was carried out as described previously ([25]). Briefly, cells were grown in 10 μM 5-bromo-2′-deoxyuridine (BrdU) for 24 hours before irradiation. Laser microirradiation was performed using a MMI CELLCUT system containing an ultraviolet (UV) A laser of 355 nm. Energy output was set to 50%, and each cell was exposed to laser beam for <300 ms. Cells were released for 30 min before fixation in 4% formaldehyde (w/v) in PBS for 15 min and permeabilization with 0.5% Triton X-100 (w/v) in PBS for 5 min at RT. After blocking with 3% FCS (w/v) in PBS for 1 hour, cells were stained with primary antibodies (table S3) for 2 hours. Staining with secondary antibodies (table S3) was performed for 1 hour. Coverslips were mounted with Vectashield supplemented with DAPI (4′,6-diamidino-2-phenylindole; Vector Laboratories), and images were acquired on a Leica DM6, 63× objective. For CtIP foci analyses, cells were fixed in 4% formaldehyde (w/v) in PBS for 15 min before permeabilization with 0.5% Triton X-100 (w/v) in PBS for 5 min at RT. A blocking step with 3% FCS (w/v) in PBS for 1 hour was followed by primary (2-hour) and secondary (1-hour) staining at RT.

T1 sequence (Q99708 whole entry): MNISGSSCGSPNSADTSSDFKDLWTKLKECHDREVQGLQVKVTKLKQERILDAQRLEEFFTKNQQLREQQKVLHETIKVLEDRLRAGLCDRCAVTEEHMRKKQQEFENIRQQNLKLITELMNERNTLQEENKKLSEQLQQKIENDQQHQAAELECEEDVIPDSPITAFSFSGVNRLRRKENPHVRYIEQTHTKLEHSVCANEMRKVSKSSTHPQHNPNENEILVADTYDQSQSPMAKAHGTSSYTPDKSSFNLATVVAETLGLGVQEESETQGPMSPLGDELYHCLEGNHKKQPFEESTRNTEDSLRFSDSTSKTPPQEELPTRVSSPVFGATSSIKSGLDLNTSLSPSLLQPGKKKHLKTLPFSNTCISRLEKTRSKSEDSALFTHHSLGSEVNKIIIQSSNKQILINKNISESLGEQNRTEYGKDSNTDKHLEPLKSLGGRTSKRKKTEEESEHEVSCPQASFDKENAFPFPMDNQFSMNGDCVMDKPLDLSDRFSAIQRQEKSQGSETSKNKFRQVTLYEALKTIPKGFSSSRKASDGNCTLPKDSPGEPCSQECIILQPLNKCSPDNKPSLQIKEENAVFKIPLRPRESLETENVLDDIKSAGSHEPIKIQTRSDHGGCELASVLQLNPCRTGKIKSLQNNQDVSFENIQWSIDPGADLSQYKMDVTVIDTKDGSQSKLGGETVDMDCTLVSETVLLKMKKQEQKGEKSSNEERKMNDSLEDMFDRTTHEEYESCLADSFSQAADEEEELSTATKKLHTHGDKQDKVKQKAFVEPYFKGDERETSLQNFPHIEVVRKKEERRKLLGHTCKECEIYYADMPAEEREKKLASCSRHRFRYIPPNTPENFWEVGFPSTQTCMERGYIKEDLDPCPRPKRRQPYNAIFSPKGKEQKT

Compound	tolerability of acute peptide treatment (clonogenic) (HeLa cells; acute (24-hour) treatment)	cytotoxicity of chronic peptide treatment on its own (clonogenic) (HeLa cells; prolonged chronic treatment)	cell survival (clonogenic) (MCF7)	cell survival (clonogenic) (MCF10A)	cell survival (clonogenic) (RPE1)	heat stability of secondary structure (CD thermal denaturation) [1]	bulk DNA replication, cell cycle distribution and cell proliferation (U2OS cells)	effect on CtIP-wt oligomeric state (full-length CtIP-wt)	HR frequency of I-SceI–induced DSBs (U2OS EGFP-HR)	CtIP recruitment to γH2AX-decorated laser stripes (U2OS^GFP-CtIP-wt)
CC(=O)N[C@@H](CO)C(=O)N[C@]1(C)CCCCCCC=CCCC[C@@](C)(C(=O)N[C@@H](CC(C)C)C(=O)N[C@@H](CCCCN)C(N)=O)NC(=O)[C@H]([C@@H](C)O)NC(=O)[C@H](Cc2c[nH]c3ccccc23)NC(=O)[C@H](CC(C)C)NC(=O)[C@H](CC(=O)O)NC(=O)[C@H](CCCCN)NC(=O)[C@H](Cc2ccccc2)NC1=O [SP^18–28] (Ac-S[R8]FKDLWT[S5]LK-NH2; staple 2-9)	well tolerated	extreme cytotoxicity	did not perceive a negative impact on cell survival	did not perceive a negative impact on cell survival	did not perceive a negative impact on cell survival	no unfolding could be observed at temperatures of up to 90 °C	neither interferes with bulk DNA replication nor causes any significant changes in cell cycle distribution and cell proliferation			
Ac-SDFKDLWTKLK-NH2 [LP^18–28]								no apparent structural changes	no measurable impact	no significant effect
